This note sets out measurements from PMC5048095, “Agroindustrial Wastes as Alternative for Lipase Production by Candida viswanathii under Solid-State Cultivation: Purification, Biochemical Properties, and Its Potential for Poultry Fat Hydrolysis” (Enzyme Research, 2016).

This experiment relates to T1, purified C. viswanathii lipase.
T1 construct: native extracellular lipase from solid-state culture, Octyl Sepharose purified
The experiment can be described thus: p-nitrophenol release at […] nm, Lineweaver-Burk plot. To be noted: 0.0 to 1.0 mM p-NPP; pH and temperature of the kinetic assay not given; free enzyme. It counts as biochemical, Candida viswanathii.

With `CCCCCCCCCCCCCCCC(=O)Oc1ccc([N+](=O)[O-])cc1` [p-NPP, p-nitrophenyl palmitate], the Km turned out to be 120 µM.
